Ki and IC50 data for 19 molecules are collected here from patent publication US20080207527A1, “Bicyclic Compounds Which Inhibit Beta-Secretase Activity and Methods of Use Thereof” (CoMentis, Inc., priority 2004, published 2008).

The structures appear in SMILES notation.

One test deals with Cathepsin D (Homo sapiens, UniProt P07339). Kind of test: Inhibition of cathepsin D activity (substrate peptide hydrolysis, MALDI-TOF). Type of test: biochemical. Particulars: pH 4.1, 37 degrees C., read-out: Cath D Ki.
Sequence of Cathepsin D (P07339 65-412, species assumed): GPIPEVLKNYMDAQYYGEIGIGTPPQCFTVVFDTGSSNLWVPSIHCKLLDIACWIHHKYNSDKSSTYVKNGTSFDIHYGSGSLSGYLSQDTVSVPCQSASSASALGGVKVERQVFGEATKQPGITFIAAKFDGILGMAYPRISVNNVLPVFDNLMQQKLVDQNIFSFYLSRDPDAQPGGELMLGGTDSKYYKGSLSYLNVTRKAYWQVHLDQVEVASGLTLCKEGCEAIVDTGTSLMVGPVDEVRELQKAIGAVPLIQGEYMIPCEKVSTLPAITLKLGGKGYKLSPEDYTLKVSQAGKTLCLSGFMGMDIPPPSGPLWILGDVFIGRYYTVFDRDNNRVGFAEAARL
The next test deals with memapsin 2 (Homo sapiens, UniProt P56817). Kind of test: Inhibition of memapsin 2 beta-secretase activity toward fluorogenic substrate FS-2. It counts as biochemical. Particulars: pH 4, 37° C., 20 minutes pre-incubation, read-out: M2 Ki. On the procedure: Potency of compounds were determined by measurement of their inhibition of memapsin 2 activity toward a fluorescent substrate. […] Briefly, assays were performed at pH 4, 37° C., by pre-incubation of memapsin 2 enzyme with compound for 20 minutes. Activity measure was initiated by addition of a fluorogenic substrate FS-2 (Bachem Americas, Torrance, Calif.). Fluorescent signal increase over time was measured as a rate of hydrolysis of the peptide substrate.
Sequence of memapsin 2 (P56817 46-501): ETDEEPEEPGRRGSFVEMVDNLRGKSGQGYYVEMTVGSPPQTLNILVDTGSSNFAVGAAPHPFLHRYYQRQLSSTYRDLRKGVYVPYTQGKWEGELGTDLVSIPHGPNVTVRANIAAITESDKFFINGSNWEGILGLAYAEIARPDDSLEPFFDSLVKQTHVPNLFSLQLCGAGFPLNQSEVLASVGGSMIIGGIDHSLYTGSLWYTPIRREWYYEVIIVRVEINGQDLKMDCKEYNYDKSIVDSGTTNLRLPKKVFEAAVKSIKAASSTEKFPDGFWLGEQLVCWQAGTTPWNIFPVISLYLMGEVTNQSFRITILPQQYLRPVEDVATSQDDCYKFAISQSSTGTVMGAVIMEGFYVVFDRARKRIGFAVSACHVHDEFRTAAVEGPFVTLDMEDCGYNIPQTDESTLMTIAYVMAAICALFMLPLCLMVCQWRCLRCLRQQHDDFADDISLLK

In another test the test system is Aβ production. Kind of test: Cellular Aβ IC50 determination (Aβ40 sandwich ELISA). Type of test: cell-based. The settings on record: Cricetulus griseus, Chinese hamster ovary cells over-expressing human APP695 with London and Swedish mutations, 24 h. Here is the method:
The potency of compounds against memapsin 2 activity was determined in a cellular assay of Aβ production. […] Chinese hamster ovary cells that over-express human APP695 with the London and Swedish mutations were seeded in multi-well plates at 10% confluency. Compounds were dissolved in DMSO to concentrations near 1 mM, and diluted into culture media to a final concentration near 4 μM (final 0.4% DMSO). Compounds were diluted serially and applied to cells in multi-well plates 48 h after seeding. Incubation was continued in 5% CO2 at 37 degrees C. for 24 h. Aliquots were removed and assayed for Aβ40 content using a sandwich ELISA (BioSource International). Amount of Aβ40 over the range of concentration of compounds, relative to control incubations, were fit to a 4-parameter IC50 model.
Background: In an ELISA, binding on a coated surface is turned into a signal by an enzyme label.

Usually Ki stands for the dissociation constant of the complex between target and ligand, obtained from inhibition or displacement. One may read the IC50 as the point on the concentration scale where inhibition reaches its midpoint. Higher therefore signals weaker potency. `Cc1csc(CNC(=O)c2cccc(C(=O)N[C@@H](CC(C)C)[C@@H](O)C[C@@H](C)C(=O)N[C@H](C(=O)NCC(C)C)C(C)C)n2)n1` [N2-(5-hydroxy-8-(1-(isobutylamino)-3-methyl-1-oxobutan-2-ylamino)-2,7-dimethyl-8-oxooctan-4-yl)-N6-((4-methylthiazol-2-yl)methyl)pyridine-2,6-dicarboxamide]: the Ki at Cathepsin D is greater than 5000 nM; on memapsin 2, 2000 to 5000 nM. In the test with Aβ production, this molecule displayed an IC50 greater than 20000 nM.
With `CC(C)CNC(=O)C(NC(=O)C(C)CC(O)C(CC(C)C)NC(=O)c1cccc(C(=O)N(C)Cc2ccccc2)c1)C(C)C` (stereo not drawn) [N1-benzyl-N3-(5-hydroxy-8-(1-(isobutylamino)-3-methyl-1-oxobutan-2-ylamino)-2,7-dimethyl-8-oxooctan-4-yl)-N1-methylisophthalamide], at memapsin 2, the Ki is less than 405 nM. In the test on Aβ production, the IC50 is greater than 20000 nM.
As for `CC(C)CC(NC(=O)c1cc(C(=O)NC(C)c2ccccc2)cc(N(C)S(C)(=O)=O)c1)C(O)CC(C)C(=O)NC(C(=O)NCC1CN(C)C1)C(C)C` (stereo not drawn) [N1-(5-hydroxy-2,7-dimethyl-8-(3-methyl-1-((1-methylazetidin-3-yl)methylamino)-1-oxobutan-2-ylamino)-8-oxooctan-4-yl)-5-(N-methylmethylsulfonamido)-N3-(1-phenylethyl)isophthalamide], the Ki on memapsin 2 was less than 405 nM. In the test on Aβ production, this molecule yielded an IC50 of less than 5000 nM.
As to `CC(C)CC(NC(=O)c1cc(C(=O)NC(C)c2ccccc2)cc(N(C)S(C)(=O)=O)c1)C(O)CC(N=[N+]=[N-])C(=O)NC(C(=O)NC(C)C)C(C)C` (stereo not drawn) [N1-(7-azido-5-hydroxy-8-(1-(isopropylamino)-3-methyl-1-oxobutan-2-ylamino)-2-methyl-8-oxooctan-4-yl)-5-(N-methylmethylsulfonamido)-N3-(1-phenylethyl)isophthalamide], the Ki at memapsin 2 is less than 405 nM. In the test on Aβ production, this molecule gave an IC50 of less than 5000 nM.
In the same order, the values of `CC(C)CNC(=O)C(NC(=O)C(C)CC(O)C(CC(C)C)NC(=O)c1cccc(C(=O)N(C)Cc2cccc(O)c2)c1)C(C)C` (stereo not drawn) [N1-(5-hydroxy-8-(1-(isobutylamino)-3-methyl-1-oxobutan-2-ylamino)-2,7-dimethyl-8-oxooctan-4-yl)-N3-(3-hydroxybenzyl)-N3-methylisophthalamide] are 405 to 2000 nM and greater than 20000 nM.
For the molecule `Cc1nc(C(C)NC(=O)c2cc(C(=O)NC(CC(C)C)C(O)CC(C)C(=O)NC(C(=O)NC(C)C)C(C)C)cc(N(C)S(C)(=O)=O)c2)c(C)o1` (stereo not drawn) [N1-(1-(2,5-dimethyloxazol-4-yl)ethyl)-N3-(5-hydroxy-8-(1-(isopropylamino)-3-methyl-1-oxobutan-2-ylamino)-2,7-dimethyl-8-oxooctan-4-yl)-5-(N-methylmethylsulfonamido)isophthalamide], the Ki was 405 to 2000 nM on Cathepsin D and less than 405 nM at memapsin 2. This molecule yielded an IC50 in the test with Aβ production of 10000 to 20000 nM.
For the molecule `Cc1csc(CN(C)C(=O)c2cccc(C(=O)NC(CC(C)C)C(O)CC(C)C(=O)NC(C(=O)NCC(C)C)C(C)C)n2)n1` (stereo not drawn) [N2-(5-hydroxy-8-(1-(isobutylamino)-3-methyl-1-oxobutan-2-ylamino)-2,7-dimethyl-8-oxooctan-4-yl)-N6-methyl-N6-((4-methylthiazol-2-yl)methyl)pyridine-2,6-dicarboxamide], the Ki at memapsin 2 is less than 405 nM. Moreover, in the test on Aβ production, the IC50 is greater than 20000 nM.
For the molecule `CC(C)CNC(=O)C(NC(=O)C(C)CC(O)C(CC(C)C)NC(=O)c1cc(C(=O)N(C)Cc2ccncc2)cc(N(C)S(C)(=O)=O)c1)C(C)C` (stereo not drawn) [N1-(5-hydroxy-8-(1-(isobutylamino)-3-methyl-1-oxobutan-2-ylamino)-2,7-dimethyl-8-oxooctan-4-yl)-N3-methyl-5-(N-methylmethylsulfonamido)-N3-(pyridin-4-ylmethyl)isophthalamide], the inhibition constant (Ki) on memapsin 2 is less than 405 nM. Also, in the test with Aβ production, the IC50 was greater than 20000 nM.
For `CNS(=O)(=O)c1cc(C(=O)NC(C)c2ccccc2)cc(C(=O)NC(CC(C)C)C(O)CC(C)C(=O)NC(C(=O)NCC(C)C)C(C)C)c1` (stereo not drawn) [N1-(5-hydroxy-8-(1-(isobutylamino)-3-methyl-1-oxobutan-2-ylamino)-2,7-dimethyl-8-oxooctan-4-yl)-5-(N-methylsulfamoyl)-N3-(1-phenylethyl)isophthalamide], in that order: less than 405 nM and 5000 to 10000 nM.
For the molecule `CC(=O)N(C)c1cc(C(=O)NC(C)c2ccccc2)cc(C(=O)NC(CC(C)C)C(O)CC(C)C(=O)NC(C(=O)NCC(C)C)C(C)C)c1` (stereo not drawn) [N1-(5-hydroxy-8-(1-(isobutylamino)-3-methyl-1-oxobutan-2-ylamino)-2,7-dimethyl-8-oxooctan-4-yl)-5-(N-methylacetamido)-N3-(1-phenylethyl)isophthalamide], the Ki on memapsin 2 is less than 405 nM. In addition, the IC50 in the test on Aβ production lay within 5000 to 10000 nM.
`CCCNC(=O)c1cc(C(=O)NC(CC(C)C)C(O)CC(C)C(=O)NC(C(=O)NC(C)C)C(C)C)cc(N(C)S(C)(=O)=O)c1` (stereo not drawn) [N1-(5-hydroxy-8-(1-(isopropylamino)-3-methyl-1-oxobutan-2-ylamino)-2,7-dimethyl-8-oxooctan-4-yl)-5-(N-methylmethylsulfonamido)-N3-propylisophthalamide]: the Ki at Cathepsin D was 405 to 2000 nM; at memapsin 2, less than 405 nM. Moreover, the IC50 in the test with Aβ production is less than 5000 nM.
For the molecule `Cc1ccc(CN(C)C(=O)c2cccc(C(=O)NC(CC(C)C)C(O)CC(C)C(=O)NC(C(=O)NCC(C)C)C(C)C)c2)o1` (stereo not drawn) [N1-(5-hydroxy-8-(1-(isobutylamino)-3-methyl-1-oxobutan-2-ylamino)-2,7-dimethyl-8-oxooctan-4-yl)-N3-methyl-N3-((5-methylfuran-2-yl)methyl)isophthalamide], the Ki at memapsin 2 was less than 405 nM. The same molecule returned an IC50 with Aβ production greater than 20000 nM.
In the same order, the values of `CC(C)CNC(=O)C(NC(=O)C(C)CC(O)C(CC(C)C)NC(=O)c1cc(C(=O)NC(C)c2ccccc2)cc(N(C)C(=O)OC2CCOC2)c1)C(C)C` (stereo not drawn) [tetrahydrofuran-3-yl 3-(5-hydroxy-8-(1-(isobutylamino)-3-methyl-1-oxobutan-2-ylamino)-2,7-dimethyl-8-oxooctan-4-ylcarbamoyl)-5-(1-phenylethylcarbamoyl)phenyl(methyl)carbamate] are 405 to 2000 nM and greater than 20000 nM.
In the case of `Cc1nc(CNC(=O)c2cc(C(=O)NC(CC(C)C)C(O)CC(C)C(=O)NC(C(=O)NC(C)C)C(C)C)cc(N(C)S(C)(=O)=O)c2)c(C)o1` (stereo not drawn) [N1-((2,5-dimethyloxazol-4-yl)methyl)-N3-(5-hydroxy-8-(1-(isopropylamino)-3-methyl-1-oxobutan-2-ylamino)-2,7-dimethyl-8-oxooctan-4-yl)-5-(N-methylmethylsulfonamido)isophthalamide], the Ki on Cathepsin D and at memapsin 2 was less than 405 nM throughout. This molecule returned an IC50 in the test with Aβ production of less than 5000 nM.
Take `CC(C)CNC(=O)C(NC(=O)C(C)CC(O)C(CC(C)C)NC(=O)c1cncc(C(=O)N(C)Cc2cccnc2)c1)C(C)C` (stereo not drawn) [N3-(5-hydroxy-8-(1-(isobutylamino)-3-methyl-1-oxobutan-2-ylamino)-2,7-dimethyl-8-oxooctan-4-yl)-N5-methyl-N5-(pyridin-3-ylmethyl)pyridine-3,5-dicarboxamide]: the inhibition constant (Ki) at memapsin 2 lay in the range of 405 to 2000 nM. The molecule further yielded a 50% inhibitory concentration (IC50) in the test with Aβ production greater than 20000 nM.
For `CC(C)CNC(=O)C(NC(=O)C(C)CC(O)C(CC(C)C)NC(=O)c1cc(C(=O)NC2CCCC2)cc(N(C)S(C)(=O)=O)c1)C(C)C` (stereo not drawn) [N1-cyclopentyl-N3-(5-hydroxy-8-(1-(isobutylamino)-3-methyl-1-oxobutan-2-ylamino)-2,7-dimethyl-8-oxooctan-4-yl)-5-(N-methylmethylsulfonamido)isophthalamide], in that order: less than 405 nM and less than 5000 nM.
For `CC(C)CC(NC(=O)c1cc(C(=O)NC(C)c2ccccc2)cc(N(C)S(C)(=O)=O)c1)C(O)CC(N)C(=O)NC(C(=O)NC(C)C)C(C)C` (stereo not drawn) [N1-(7-amino-5-hydroxy-8-(1-(isopropylamino)-3-methyl-1-oxobutan-2-ylamino)-2-methyl-8-oxooctan-4-yl)-5-(N-methylmethylsulfonamido)-N3-(1-phenylethyl)isophthalamide], in that order: less than 405 nM and greater than 20000 nM.
In the same order, the values of `Cc1csc(CN(C)C(=O)c2cncc(C(=O)NC(CC(C)C)C(O)CC(C)C(=O)NC(C(=O)NCC(C)C)C(C)C)c2)n1` (stereo not drawn) [N3-(5-hydroxy-8-(1-(isobutylamino)-3-methyl-1-oxobutan-2-ylamino)-2,7-dimethyl-8-oxooctan-4-yl)-N5-methyl-N5-((4-methylthiazol-2-yl)methyl)pyridine-3,5-dicarboxamide] are less than 405 nM and 5000 to 10000 nM.
Regarding `CCN(Cc1nc(C)cs1)C(=O)c1cccc(C(=O)NC(CC(C)C)C(O)CC(C)C(=O)NC(C(=O)NCC(C)C)C(C)C)c1` (stereo not drawn) [N1-ethyl-N3-(5-hydroxy-8-(1-(isobutylamino)-3-methyl-1-oxobutan-2-ylamino)-2,7-dimethyl-8-oxooctan-4-yl)-N1-((4-methylthiazol-2-yl)methyl)isophthalamide], the Ki on memapsin 2 was less than 405 nM. Besides, the IC50 in the test with Aβ production is less than 5000 nM.
